From patent US20030158120A1, “Combination product comprising melagatran and a factor xa inhibitor” (AstrZeneca AB, priority 2000, published 2003)

What was measured:
human plasma = assay: Prothrombin time clotting assay; type: biochemical
Description: Human blood from healthy volunteers, both men and women, was collected in 50 mL conical plastic tubes containing 5 mL of 0.13 mol/L of buffered tri-sodium citrate. The blood was immediately chilled on ice and centrifuged at 2000×g for 20 minutes.
100 μL of human plasma was pre-warmed to 37° C. for 180 seconds before coagulation was initiated by the addition of 200 μL pre-warmed assay reagent (Thromboplastin-S, ISI 1.1, Biopool Umea, Sweden). The prothrombin time (PT) was determined on a mechanical coagulometer, coupled to a CR-A calculator, CR 10 printer and a PR60 heat block (KC 10A Amelung, Germany). Each clotting test was performed in duplicate.
In order to determine the relative potency of each inhibitor and a 50:50 mixture thereof, the concentration required to double the prothrombin time (IC50) was determined as follows: The ratio of prothrombin time in control plasma (PT0) to the prothrombin time in the presence of different inhibitor concentrations (PTinhibitor) were plotted against the inhibitor concentration (log transformed) and fitted to sigmoidal dose-response curves from which IC50 values were calculated according to the equation:
where y=(PTO)/(PT) with a range from 1 to 0; a=maximal range i.e. 1, when PTmela is equal to PT0; s=the slope of the dose-response curve, x=log concentration of inhibitor, IC50=the concentration of melagatran that doubles the prothrombin time. The calculations were processed on a PC using the software program GraFit® Erithacus Version 3.0 (Robin Leatherbarrow, Imperial Collage of Science, Technology & Medicine, London).

melting point [°C] | IC50 (human plasma; from sigmoidal dose-response curves of PT0/PTinhibitor, human plasma, total concentration for the mixture, read-out: IC50 (concentration required to double the prothrombin time)) [nM] | Structure (SMILES) | Prothrombin time (human plasma; plasma conc. 0.23 μmol/L) [s] | Prothrombin time (human plasma; plasma conc. 0.47 μmol/L) [s] | Prothrombin time (human plasma; plasma conc. 0.70 μmol/L) [s] | Prothrombin time (human plasma; plasma conc. 0.93 μmol/L) [s] | Prothrombin time (human plasma; plasma conc. 1.17 μmol/L) [s] | Prothrombin time (human plasma; plasma conc. 1.40 μmol/L) [s] | Prothrombin time (human plasma; plasma conc. 1.63 μmol/L) [s] | Prothrombin time (human plasma; plasma conc. 1.86 μmol/L) [s] | Prothrombin time (human plasma; plasma conc. 2.10 μmol/L) [s] | PT (human plasma; single inhibitor at 2.33 μmol/L in human platelet poor plasma) [s]
265 to 267 | – | O=C(c1ccc(-c2cc[n+]([O-])cc2)cc1)N1CCN(S(=O)(=O)c2cc3cc(Cl)ccc3[nH]2)CC1 [Example 1, 4-{4-[4(5-Chloroindol-2-ylsulfonyl)piperazine-1-carbonyl]phenyl}-pyridine-1-oxide] | – | – | – | – | – | – | – | – | – | –
– | 740 | N=C(N)c1ccc(CNC(=O)[C@@H]2CCN2C(=O)[C@H](NCC(=O)O)C2CCCCC2)cc1 [melagatran, HOOC—CH2—(R)Cgl-Aze-Pab-H] | 18.1 | 21.8 | 25.4 | 32.6 | 43.2 | 53.8 | 65.3 | 76.3 | 87.2 | 95.2
